These results are taken from patent US20100216661A1, “Diagnostic Assay” (priority 2007, published 2010).

In test [1] the test system is anti-Fy^b monoclonal antibody (LM447). Nature of the test: LiquiChip Ni-NTA microsphere bead assay (Luminex 100), anti-Fy^b. It is filed as binding, Murine. The settings on record: FIG. 11; peptide with C-terminal 6 Histidine tag; Luminex 100 Analyser. The procedure:
(§1) Further confirmation that the peptide mimotopes can specifically bind antibodies raised to native blood group antigens was achieved following the immobilisation of peptide mimotopes onto polystyrene LiquiChip Ni-NTA microsphere beads (Qiagen).
(§2) Peptide mimotopes (e.g. Fyb16; RhD12) were synthesised with a C-terminal tag consisting of 6 Histidine amino acids. Stock solutions (4 μg/ml) of the 6×His tagged peptide mimotopes were prepared in PBS/0.1% BSA. The peptides were immobilised onto the beads using the Ni-NTA groups attached to the surface of the beads, as follows. A 50 μl volume of a 4 μg/ml peptide stock (Fyb16 or RhD12) was mixed with an equal volume of LiquiChip Ni-NTA beads (Bead 50 or Bead 52, respectively). Following incubation with mixing at 4° C. overnight, the Bead/peptide mixture was diluted with 900 μl of PBS/0.1% BSA. The Bead/peptide mixture was vortexed for 2 minutes and then a 10 μl volume was aliquoted into the well of a 96-well, round-bottomed. ELISA plate (Nunc). […] Confirmation of bound monoclonal antibody was determined by the detection of a phycoerythrin fluorochrome signal. The intensity of the signal equates to the quantity of monoclonal antibody bound to the immobilised peptide mimotope.

The test system is the same in test [2]. Nature of the test: Modified gel agglutination assay with superparamagnetic TALON beads, anti-Fy^b. The test is classed as binding, Murine. The settings on record: FIG. 14; His-tagged peptide; TALON Dynabeads; NaCl gel card with sheep anti-mouse IgG; read visually; anti-RhD T27 as comparison chamber. As for the experimental part:
(§3) The ability of peptide mimotopes to specifically bind antibodies was further tested using superparamagnetic polystyrene beads (TALON Dynabeads; Invitrogen) in a modified gel agglutination assay.
(§4) A 50 μl volume of the magnetic beads was added to 700 μl of TBS (50 mM Tris-HCl pH7.5; 150 mM NaCl). Following mixing for 5 minutes at room temperature, the magnetic beads were isolated using a Magnetic Particle Concentrator (Invitrogen). The supernatant was discarded and the beads were washed for 5 minutes in 700 μl of TBS. The beads were again separated from the buffer using the MPC magnet, and then resuspended in 700 μl of TBS. Peptide mimotopes (e.g. Fyb16; RhD12) were synthesised with a C-terminal tag consisting of 6 Histidine amino acids. Stock solutions (100 μg/ml) of the 6×His tagged peptide mimotopes were prepared in PBS.
To test the binding of a murine monoclonal antibody (e.g. LM447: anti-Fy^b monoclonal antibody), a 1 μl volume of sheep anti-mouse IgG is first added to the reaction chamber of an NaCl gel card and allowed to equilibrate with the gel matrix for 10 minutes at room temperature, prior to the addition of a 50 μl volume of diluted TALON beads, a 50 μl volume of diluted His-tagged peptide mimotope (e.g. Fyb16) and 100 μl of the test murine monoclonal antibody (e.g. LM447: anti-Fy^b). […] Again the reaction was read visually.

Test [3] has as its system anti-RhD monoclonal antibody (T27). Nature of the test: LiquiChip Ni-NTA microsphere bead assay (Luminex 100), anti-RhD. The test is classed as binding, Human. The settings on record: FIG. 12; peptide with C-terminal 6 Histidine tag; Luminex 100 Analyser. As for the experimental part: as §1, §2
The test system is the same in test [4]. Nature of the test: Modified gel agglutination assay with superparamagnetic TALON beads, anti-RhD. Conditions: FIG. 13; His-tagged peptide; TALON Dynabeads; NaCl gel card; read visually; anti-Fy^b LM447 as comparison chamber. The test is classed as binding, Human. The procedure:
as §3, §4
A 50 μl volume of diluted TALON beads was placed in the reaction chamber of an NaCl gel card (ID Microtyping System; Diamed), together with a 50 μl volume of diluted His-tagged peptide mimotope (e.g. RhD12) and 100 μl of test human monoclonal antibody (e.g. T27: anti-RhD). The gel card was incubated at 37° C. for 1 hour in an Incubator-ID (DiaMed). Following incubation, the card was centrifuged for 10 minutes in an ID Centrifuge 24S (DiaMed). Antibody-positive reactions are visualised by a layer of beads upon the surface of the gel matrix. […]

Consider FQPNPPPSFAAP [Fyb16], for which the “Binding of anti-Fy^b antibody LM447 to peptide immobilised on LiquiChip Ni-NTA microsphere beads (phycoerythrin signal)” value in test [1] was “specific binding”. The “Binding of anti-Fy^b antibody LM447 to peptide on superparamagnetic polystyrene beads, modified gel agglutination assay” value in test [2] is listed as “specific binding”.
Consider “RhD12: RhD peptide mimotope, Table 4 (HQNPWLLWPRGF)”, for which the “Binding of anti-RhD antibody T27 to peptide immobilised on LiquiChip Ni-NTA microsphere beads (phycoerythrin signal)” value in test [3] was “specific binding”. In test [4], the “Binding of anti-RhD antibody T27 to peptide on superparamagnetic polystyrene beads, modified gel agglutination assay” value was “specific binding”.
